Like-named read-outs stand apart in the source and are kept apart here.
Assays:
in vitro = settings: dog
[1] = test system: influenza virus A/WSN/33 (H1N1); assay: cytopathic effect (CPE) reduction assay, anti-influenza virus; format: cell-based, influenza A/WSN/33 (H1N1)
[2] = H1N1|WSN, MDCK, 40 h, read-out: IC50, inhibitory activity against influenza virus A/WSN/33 (H1N1), infected MDCK cells, MOI = 0.1, 40 h incubation, CellTiter-Glo readout

| Structure (SMILES) | CC50 at 40 h (in vitro) [µM] | IC50 [1, 2] [µM] | IC50 ([1]; read-out: IC50, inhibitory activity against influenza virus A/WSN/33 (H1N1), infected MDCK cells, MOI = 0.1, 40 h incubation, CellTiter-Glo readout) [µM] |
| --- | --- | --- | --- |
| COC(=O)C(O)CC(=O)C1(C)C(C)C1CCC(C)=O (centres unmarked) [Compound 1, sydocyclopropane A] | > 100 | 26.7 ± 0.9 |  |
| CC(=O)C1(C)C(C)C1CC(=O)O (centres unmarked) [Compound 2, Sydocyclopropane B] | > 100 | 29.5 ± 1.4 |  |
| CC(=O)CCC1C(C)C1(C)C(=O)O (centres unmarked) [Compound 3, sydocyclopropane C] | > 100 | 77.2 ± 0.5 |  |
| CC(=O)CCC1C(C)C1(C)C(=O)O (centres unmarked) [Compound 4, sydocyclopropane D] |  |  | 66.4 ± 1.7 |
| CC(=O)C=CC1C(C)C1(C)C(C)=O (centres unmarked) [Compound 5, hamavellone B] | > 100 | 35.8 ± 3.2 |  |
| CCOC(=O)C1=C[C@@H](OC(CC)CC)[C@H](NC(C)=O)[C@@H](N)C1 [OSV, oseltamivir, reference compound] | > 100 | 18.1 ± 1.2 |  |

Source: article PMC9321810, “Antiviral Cyclopropane Acids from Deep-Sea-Derived Fungus Aspergillus sydowii” (Marine Drugs, 2022)
